Legend:
[1] = system: Pseudoperonospora cubensis; test: Cucumber Downy Mildew (CDM); conditions: in vivo
Plasmopara viticola [2] = test: Downy Mildew of Grapes--Curative (GDC); conditions: in vivo
Rhizoctonia solani = test: microbe, parasite or virus in culture; type: cell-based; conditions: 72 h, 3 days at room temperature, read-out: RHI percent inhibition of fungal growth
Fusarium roseum = test: microbe, parasite or virus in culture; type: cell-based; conditions: Fusarium sambucinum, 72 h, read-out: FUS percent inhibition of fungal growth
Plasmopara viticola [3] = test: Downy Mildew of Grapes (GDM); type: in vivo; conditions: 300 g/Ha; 7-8 days; grape
Phytophthora infestans [4] = type: in vivo; conditions: 300 g/Ha; applied two days after inoculation (curative); tomato
Piricularia oryzae = test: organism not typed; type: cell-based; conditions: 72 h, read-out: PIR percent inhibition of fungal growth
Cercospora arachidicola = test: Peanut Cercospora (PC); conditions: in vivo
strawberry plants = test: In vivo phytotoxic activity, foliar spray, strawberry; design: key: +: indicating presence of a plant growth regulatory effect as compared to a control to which a solvent mixture (acetone/water/methanol) lacking the test compound was applied; 0: A zero indicates no apparent effect; conditions: foliar spray 2200 g/Ha, seven days after application
Experimental: The compounds of Examples 1 and 12 were tested in vivo for phytotoxic activity by applying the compounds to the foliage of cucumber, tomato, bean, lettuce and strawberry plants as a spray at a rate of 2200 g/Ha. The plants were evaluated seven days after spray application of the compounds.
Phototoxicity scores are set forth below in Table 6. The phytotoxicity scores use a symbol, "+", indicating presence of a plant growth regulatory effect as compared to a control to which a solvent mixture (acetone/water/methanol) lacking the test compound was applied. A zero indicates no apparent effect. Each score is a composite representing the mode value for three replicate plants.

Cercospora beticola = test: microbe, parasite or virus in culture; type: cell-based; conditions: 72 h, 3 days at room temperature, read-out: CER percent inhibition of fungal growth
[5] = system: Erysiphe graminis (f. sp. tritici); test: Wheat Powdery Mildew (WPM); type: in vivo; conditions: 300 g/Ha; 8 to 10 days after inoculation; Pennol wheat
Experimental: Wheat Powdery Mildew (WPM) Erysiphe graminis (f. sp. tritici) was cultured on Pennol wheat seedlings in a controlled temperature room at 65° F. to 75° F. Mildew spores were shaken from the culture plants onto Pennol wheat seedlings which had been sprayed previously with the fungicide compound. The inoculated seedlings were kept in a controlled temperature room at 65° F. to 75° F. and subirrigated. […] The fungicidal activity of compound of Example 12 against the above discussed phytopathogenic fungi is set forth in Table 5 as percent disease control at an application rate of 300 g/Ha.

[6] = system: Colletotrichum lagenarium; test: microbe, parasite or virus in culture; type: cell-based; conditions: Colletotrichum orbiculare, 72 h, 3 days at room temperature, read-out: COL percent inhibition of fungal growth
Phytophthora infestans [7] = type: in vivo; conditions: 300 g/Ha; 6 days after inoculation; tomato
Monilinia fructicol = test: microbe, parasite or virus in culture; type: cell-based; conditions: 72 h, 3 days at room temperature, read-out: MON percent inhibition of fungal growth

CCC(C)(NC(=O)c1cc(C)cc(C=NOC)c1)C(=O)CCl (centres unmarked) [Example 12, N-[3'-(1'-chloro-3'-methyl-2'-oxopentan)]-3-methoxyiminomethyl-5-methylbenzamide]
CDM percent disease control [1]: 99%
GDC percent disease control (Plasmopara viticola [2]): 50%
inhibition at 25 ppm (Rhizoctonia solani): 0%
inhibition at 25 ppm (Fusarium roseum): 0%
GDM percent disease control (Plasmopara viticola [3]): 100%
TLC percent disease control (Phytophthora infestans [4]): 99%
inhibition at 25 ppm (Piricularia oryzae): 100%
PC percent disease control (Cercospora arachidicola): 80%
phytotoxicity score, Strawberry (strawberry plants): 0
inhibition at 25 ppm (Cercospora beticola): 100%
WPM percent disease control [5]: 75%
inhibition at 25 ppm [6]: 100%
TLB percent disease control (Phytophthora infestans [7]): 100%
inhibition at 25 ppm (Monilinia fructicol): 100%

— US5254584A, “N-acetonylbenzamides and their use as fungicides” (Rohm and Haas Company, priority 1992, dated 1993)
